T1: RhoD/plexin B2-RBD complex (Homo sapiens, UniProt O00212, Q75L)
T1 construct: human RhoD 8-194 Q75L (catalytically dead), His6-tag removed by 3C protease, E. coli BL21(DE3); mouse plexin B2 intracellular region 1274-1842, tag removed, E. coli ArcticExpress(DE3), degraded in drops to RBD (1463-1565, domain-swapped dimer); with Plexin-B2 (Mus musculus)
T1 sequence (O00212 8-194 Q75L): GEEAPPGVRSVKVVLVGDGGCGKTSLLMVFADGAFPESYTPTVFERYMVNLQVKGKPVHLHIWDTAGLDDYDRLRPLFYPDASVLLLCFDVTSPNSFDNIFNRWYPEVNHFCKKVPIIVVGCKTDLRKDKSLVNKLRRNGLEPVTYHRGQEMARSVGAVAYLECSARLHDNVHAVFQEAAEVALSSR
T1 sequence (B2RXS4 1463-1565 partner): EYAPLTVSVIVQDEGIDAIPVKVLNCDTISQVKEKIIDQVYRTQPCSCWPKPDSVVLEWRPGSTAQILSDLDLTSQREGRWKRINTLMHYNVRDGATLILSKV

T2: human RhoD (residues 8-194) with the Q75L mutation, bound to GMP-PNP (human, UniProt O00212 8-194, Q75L)
T2 construct: Loaded with the GTP analogue GMP-PNP and Mg2+ before crystallization; His6 tag removed with human rhinovirus 3C protease; also called GMP-PNP-loaded RhoD; source: E. coli BL21 (DE3), purified (HisTrap, anion exchange, Superdex 75); not shown: His6, N-terminal, cleaved
T2 sequence (looked up): T1 sequence (O00212 8-194 Q75L)

B1: mouse plexin B2 RBD (Rho-GTPase-binding domain), as found in the crystal (domain or fragment, UniProt B2RXS4 1463-1565, looked up)
chain: T1 sequence (B2RXS4 1463-1565 partner)
notes: Plexin B2, mouse; Expressed as the intracellular region without the juxtamembrane region (residues 1274-1842); it degraded during crystallization and the crystal held only the RBD, built as residues 1463-1509 and 1510-1565; The range is that of the residues modelled in the structure; In the crystal two RBD chains form a domain-swapped dimer (swap between residues 1509 and 1510), which the authors …

Columns and labels:
[1] = target: T1, RhoD/plexin B2-RBD complex; test: X-ray crystal structure, […] Å; conditions: Mg2+; GTP-binding site of RhoD; RhoD loaded by EDTA exchange; complex with plexin B2 RBD
[2] = target: T2, human RhoD (residues 8-194) with the …; test: crystal structure; plexin B2 (1274-1842) and GMP-PNP-loaded RhoD mixed at 1:1 molar ratio, 6 mg/mL; crystals grown for over a month at 20 C in 0.2 M MgCl2, 22% PEG3350, 100 mM MIB pH 6.8; molecular replacement, 3.1 A; two RhoD and two RBD in the asymmetric unit; conditions: both partners purified

Molecule	X-ray crystal structure, 3.1 Å [1]	binding result [2]
Nc1nc2c(ncn2[C@@H]2O[C@H](COP(=O)(O)OP(=O)(O)NP(=O)(O)O)[C@@H](O)[C@H]2O)c(=O)[nH]1 [GMP-PNP, guanosine 5′-[β,γ-imido]triphosphate]	complex of mouse plexin B2 and human RhoD bound to the GTP analogue GMP-PNP	–
B1	–	binds

Source: publication PMC8219378, “A putative structural mechanism underlying the antithetic effect of homologous RND1 and RhoD GTPases in mammalian plexin regulation” (eLife, 2021)
